According to ChEMBL document CHEMBL3862021, “Eeyarestatin I derivatives with improved aqueous solubility” (Bioorg Med Chem Lett, 2016):
pEC50: −log10 of the molar value. ≈ marks a conversion by molar mass, not a printed value. Calls of active or inactive are those of the source. The rule behind the calls is not given here.

Experiments:
[1] = Thermodynamic solubility of the compound in DPBS after 24 hrs by LC-MS/MS analysis; format: physicochemical; settings: read-out: Therm_solubility
[2] = Antiproliferative activity against human MIAPaCa2 cells assessed as reduction in cell viability after 72 hrs by MTT assay; format: functional, cell-based; settings: MIA PaCa-2, 72 h
[3] = Effect on endogenous p97 protein level in HEK293T cells up to 40 uM after 16 hrs by immunoblot analysis; format: ADME, cell-based; settings: human, hek-293t
[4] = biological target: Transitional endoplasmic reticulum ATPase (Homo sapiens) (UniProt P55072); test: Inhibition of p97 in HEK293T cells assessed as induction of ER-stress by measuring ATF3 expression up to 40 uM after 16 hrs by immunoblot analysis; format: cell-based; settings: HEK-293T
Transitional endoplasmic reticulum ATPase (Homo sapiens), sequence (P55072 2-806 limits assumed): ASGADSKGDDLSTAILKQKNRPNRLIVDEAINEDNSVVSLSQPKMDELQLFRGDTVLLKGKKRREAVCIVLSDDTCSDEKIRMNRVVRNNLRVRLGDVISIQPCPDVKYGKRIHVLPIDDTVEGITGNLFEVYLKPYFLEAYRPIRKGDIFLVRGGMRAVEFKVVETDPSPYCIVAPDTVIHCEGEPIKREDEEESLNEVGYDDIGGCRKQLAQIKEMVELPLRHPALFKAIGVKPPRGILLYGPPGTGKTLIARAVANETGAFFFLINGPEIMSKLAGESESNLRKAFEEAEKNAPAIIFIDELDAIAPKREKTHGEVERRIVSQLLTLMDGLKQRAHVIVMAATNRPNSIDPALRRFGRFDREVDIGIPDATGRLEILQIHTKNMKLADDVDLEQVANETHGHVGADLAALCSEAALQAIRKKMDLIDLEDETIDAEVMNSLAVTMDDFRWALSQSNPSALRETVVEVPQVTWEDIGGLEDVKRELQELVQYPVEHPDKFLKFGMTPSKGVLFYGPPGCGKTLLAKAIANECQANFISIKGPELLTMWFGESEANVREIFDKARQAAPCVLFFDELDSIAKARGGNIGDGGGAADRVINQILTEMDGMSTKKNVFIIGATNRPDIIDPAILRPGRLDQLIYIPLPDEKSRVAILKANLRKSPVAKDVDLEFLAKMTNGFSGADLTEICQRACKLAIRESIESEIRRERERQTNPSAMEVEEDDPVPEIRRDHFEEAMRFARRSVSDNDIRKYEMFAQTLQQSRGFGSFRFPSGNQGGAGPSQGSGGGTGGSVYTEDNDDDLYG

[5] = Half life in human plasma by LC-MS/MS analysis; format: ADME, cell-free
[6] = Half life in mouse plasma by LC-MS/MS analysis; format: ADME, cell-free
[7] = Primary phase half life in mouse liver microsomes at 1 uM in presence of NADPH by LC-MS/MS analysis; format: ADME; settings: read-out: alphat1/2
[8] = Primary phase half life in human liver microsomes at 1 uM in presence of NADPH by LC-MS/MS analysis; format: ADME; settings: read-out: alphat1/2
[9] = Terminal phase half life in mouse liver microsomes at 1 uM in presence of UDPGA by LC-MS/MS analysis; format: ADME; settings: read-out: beta t1/2
[10] = Terminal phase half life in human liver microsomes at 1 uM in presence of UDPGA by LC-MS/MS analysis; format: ADME; settings: read-out: beta t1/2
[11] = biological target: Transitional endoplasmic reticulum ATPase (Homo sapiens) (UniProt P55072); test: Inhibition of p97 in HEK293T cells assessed as induction of ER-stress by measuring ATF4 expression at 20 uM after 16 hrs by immunoblot analysis; format: cell-based; settings: HEK-293T

| solubility thermodynamic at 24 h [1] [µM] | inhibition [4] | half-life [5] [h] | half-life [6] [h] | half-life at 1 µM [7] [h] | half-life at 1 µM [8] [h] | half-life at 1 µM [9] [h] | half-life at 1 µM [10] [h] | inhibition [11] | Compound | pEC50 [2] | Activity [3] |
| --- | --- | --- | --- | --- | --- | --- | --- | --- | --- | --- | --- |
| 64.2 (≈ 45.6 µg/mL) | – | – | – | – | – | – | – | – | COCCOc1ccc(NC(=O)N(O)C2N(c3ccc(OCCOC)cc3)C(=O)N(CC(=O)N/N=C/C=C/c3ccc([N+](=O)[O-])o3)C2(C)C)cc1 (stereo not given) | 4.42 | Non-Toxic |
| 2.3 (≈ 1.54 µg/mL) | Active | 9.5 | 12.5 | 1.75 | 2.07 | 16.5 | 23.1 | Active | COCCOc1ccc(NC(=O)N(O)C2N(c3ccc(Cl)cc3)C(=O)N(CC(=O)N/N=C/C=C/c3ccc([N+](=O)[O-])o3)C2(C)C)cc1 (stereo not given) | 5.27 | Non-Toxic |
| 2.8 (≈ 1.88 µg/mL) | Active | 17.2 | 15.7 | 2.32 | 0.53 | 14.4 | 57.8 | Active | COCCOc1ccc(N2C(=O)N(CC(=O)N/N=C/C=C/c3ccc([N+](=O)[O-])o3)C(C)(C)C2N(O)C(=O)Nc2ccc(Cl)cc2)cc1 (stereo not given) | 5.20 | Non-Toxic |
